This is an account of results in ChEMBL document CHEMBL5729517, “BTK inhibitor compounds” (2023).

By IC50 is commonly meant the midpoint of a concentration-inhibition curve.

For assay [1], the target named is Epidermal growth factor receptor (Homo sapiens, UniProt P00533). Put plainly: BTK and EGFR in Vitro Assay: The BTK and EGFR biochemical assays utilize LANTHASCREEN® Eu Kinase Binding Assays from Thermo Fisher Scientific, measuring the binding of the kinase with a fluorinated tracer. The assay buffer consists of 50 mM HEPES pH 7.5, 0.01% BRU™-35, 10 mM MgCl2, 1 mM EGTA, and 1 mM DTT. […] The compounds are tested in 10 point dose response curves (100 μM-0.005 μM) with a maximum DMSO concentration of 1%. The assays are performed in 20 μL in low-volume 384-well white proxiplates. […] The signal ratio is converted to percent inhibition using the following equation: % Inhibition=100−[(Test Compound−Median Minimum)/(Median Maximum−Median Minimum)×100].

Assay [2] deals with Tyrosine-protein kinase BTK (Homo sapiens, UniProt Q06187). Put plainly: BTK and EGFR in Vitro Assay: The BTK and EGFR biochemical assays utilize LANTHASCREEN® Eu Kinase Binding Assays from Thermo Fisher Scientific, measuring the binding of the kinase with a […] tracer. The assay buffer consists of 50 mM HEPES pH 7.5, 0.01% BRU™-35, 10 mM MgCl2, 1 mM EGTA, and 1 mM DTT. The test compounds are diluted and added to the assay plate with a Labcyte ECHO® 555 liquid handler. The compounds are tested in 10 point dose response curves (100 μM-0.005 μM) with a maximum DMSO concentration of 1%. The assays are performed in 20 μL in low-volume 384-well white proxiplates. For the BTK assay, the concentration of full-length His-labeled BTK in the assay is 5 nM, the Eu-anti-His antibody is 2 nM, and the kinase tracer 236 is 60 nM. For the EGFR assay, the concentration of truncated (amino acids 668-1210) GST-labeled EGFR is 5 nM, the Eu-anti-GST antibody is 2 nM, and the kinase tracer 199 is 10 nM. The components of the assay (compound, enzyme/antibody, tracer) are assembled and incubated for 30 min prior to being read on a Perkin-Elmer EnVision with excitation at 340 nm, tracer emission at 665 nm, and antibody emission at 615 nm. The signal ratio is converted to percent inhibition using the following equation: % Inhibition=100−[(Test Compound−Median Minimum)/(Median Maximum−Median Minimum)×100]. (In TR-FRET formats the signal depends on donor and acceptor labels being close together.)
Tyrosine-protein kinase BTK, sequence (Q06187 whole entry, the tested form may be a part): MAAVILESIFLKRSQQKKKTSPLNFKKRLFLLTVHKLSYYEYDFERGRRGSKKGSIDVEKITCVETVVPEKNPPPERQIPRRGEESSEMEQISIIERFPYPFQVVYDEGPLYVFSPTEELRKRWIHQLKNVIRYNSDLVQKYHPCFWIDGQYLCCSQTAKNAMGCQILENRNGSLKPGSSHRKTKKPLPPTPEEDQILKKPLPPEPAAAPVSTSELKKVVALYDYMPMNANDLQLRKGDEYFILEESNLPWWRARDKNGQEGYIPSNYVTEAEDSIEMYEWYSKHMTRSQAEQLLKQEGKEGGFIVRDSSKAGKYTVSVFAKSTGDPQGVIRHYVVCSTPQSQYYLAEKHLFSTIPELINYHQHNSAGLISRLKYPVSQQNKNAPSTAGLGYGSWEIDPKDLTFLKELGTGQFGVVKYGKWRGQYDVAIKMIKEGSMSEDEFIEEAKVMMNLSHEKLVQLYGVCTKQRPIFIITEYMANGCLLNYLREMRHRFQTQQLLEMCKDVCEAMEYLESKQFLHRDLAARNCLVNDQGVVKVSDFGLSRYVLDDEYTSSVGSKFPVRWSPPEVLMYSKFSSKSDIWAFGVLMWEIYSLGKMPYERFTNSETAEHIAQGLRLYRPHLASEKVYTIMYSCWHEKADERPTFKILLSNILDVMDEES

Epidermal growth factor receptor, sequence (P00533 whole entry): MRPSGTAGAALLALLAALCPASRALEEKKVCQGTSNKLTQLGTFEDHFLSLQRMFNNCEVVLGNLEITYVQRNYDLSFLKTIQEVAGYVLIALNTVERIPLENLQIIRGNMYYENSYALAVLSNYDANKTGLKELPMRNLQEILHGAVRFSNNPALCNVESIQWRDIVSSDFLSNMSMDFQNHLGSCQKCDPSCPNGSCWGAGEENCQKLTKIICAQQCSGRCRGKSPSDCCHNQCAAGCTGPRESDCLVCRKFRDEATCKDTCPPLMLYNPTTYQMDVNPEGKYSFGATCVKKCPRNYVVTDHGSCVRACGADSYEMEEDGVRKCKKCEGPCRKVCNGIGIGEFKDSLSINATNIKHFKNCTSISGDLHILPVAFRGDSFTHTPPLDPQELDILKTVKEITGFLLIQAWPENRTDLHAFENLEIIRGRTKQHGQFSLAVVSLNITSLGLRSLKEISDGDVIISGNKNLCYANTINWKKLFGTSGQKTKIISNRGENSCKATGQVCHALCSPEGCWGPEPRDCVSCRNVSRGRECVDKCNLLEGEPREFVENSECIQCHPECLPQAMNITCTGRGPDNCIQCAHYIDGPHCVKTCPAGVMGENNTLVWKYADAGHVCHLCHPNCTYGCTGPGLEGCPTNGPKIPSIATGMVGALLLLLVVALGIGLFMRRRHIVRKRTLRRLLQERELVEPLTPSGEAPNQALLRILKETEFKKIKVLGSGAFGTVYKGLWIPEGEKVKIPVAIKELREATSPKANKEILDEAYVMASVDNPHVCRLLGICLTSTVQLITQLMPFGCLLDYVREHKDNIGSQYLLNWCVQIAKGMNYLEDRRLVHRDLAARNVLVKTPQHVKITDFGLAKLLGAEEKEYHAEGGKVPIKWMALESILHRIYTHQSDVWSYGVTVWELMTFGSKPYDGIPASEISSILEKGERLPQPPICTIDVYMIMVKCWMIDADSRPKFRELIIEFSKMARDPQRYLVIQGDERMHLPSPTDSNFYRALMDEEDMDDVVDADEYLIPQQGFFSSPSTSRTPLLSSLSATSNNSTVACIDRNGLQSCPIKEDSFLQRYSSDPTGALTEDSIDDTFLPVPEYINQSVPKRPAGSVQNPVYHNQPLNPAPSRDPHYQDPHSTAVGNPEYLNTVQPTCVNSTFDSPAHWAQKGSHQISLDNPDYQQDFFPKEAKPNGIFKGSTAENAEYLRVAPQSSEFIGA

For the compound `C=CC(=O)N1CC[C@H](Nc2cncc(-c3cnc(Nc4cccc(C)n4)nc3)c2)C1`, the IC50 in assay [1] worked out at 16.1 µM; in assay [2], 0.0329 µM.

Consider `C=CC(=O)N1CC(Nc2cncc(-c3cnc(Oc4cccc(C#N)c4)nc3)c2)C1`, for which the IC50 in assay [1] came out at 6.52 µM; in assay [2] it was 0.0758 µM.

In the case of `C=CC(=O)N1CC[C@H](Nc2cncc(-c3cnc(Nc4cccc(OC(F)F)c4)nc3)c2)C1`, the IC50 was 8.65 µM in assay [1] and 0.00608 µM in assay [2].

Take `C=CC(=O)N1CC[C@H](Nc2cncc(-c3cnc(Oc4cccc(OC(F)F)c4)nc3)c2)C1`: the IC50 in assay [1] came out at 28.5 µM; in assay [2] it was 0.0555 µM.
